Measurements published in ChEMBL document CHEMBL1144935, “Synthesis, biological evaluation, and receptor docking simulations of 2-[(acylamino)ethyl]-1,4-benzodiazepines as kappa-opioid receptor agonists endowed with antinociceptive and antiamnesic activity” (J Med Chem, 2003).

Columns and labels:
[1] = molecular target: T1, Kappa-type opioid receptor (Homo sapiens, UniProt P41145); experiment: Binding constant towards human Opioid receptor kappa 1 was reported
[2] = molecular target: T1, Kappa-type opioid receptor; experiment: Binding affinity against opioid receptor kappa 1 from human cloned receptor
Mu-type opioid receptor [3] = molecular target: Mu-type opioid receptor (Homo sapiens, UniProt P35372); experiment: Binding affinity determined against Opioid receptor mu 1 from human cloned receptor
Sequence of Mu-type opioid receptor (Homo sapiens, UniProt P35372) (P35372 whole entry): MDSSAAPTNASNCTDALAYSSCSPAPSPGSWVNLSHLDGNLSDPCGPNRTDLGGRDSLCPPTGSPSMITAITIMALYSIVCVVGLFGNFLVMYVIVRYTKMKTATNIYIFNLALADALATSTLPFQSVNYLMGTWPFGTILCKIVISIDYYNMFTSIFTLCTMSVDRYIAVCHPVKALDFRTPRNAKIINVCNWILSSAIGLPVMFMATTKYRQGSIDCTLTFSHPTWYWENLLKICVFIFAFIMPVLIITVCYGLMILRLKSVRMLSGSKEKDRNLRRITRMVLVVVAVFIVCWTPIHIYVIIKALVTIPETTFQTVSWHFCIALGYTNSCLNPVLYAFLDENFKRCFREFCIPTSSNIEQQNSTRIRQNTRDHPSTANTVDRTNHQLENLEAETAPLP

[4] = molecular target: Kappa-type opioid receptor (Cavia porcellus, UniProt P41144); experiment: Binding affinity determined against Opioid receptor kappa 1 from a native receptor in guinea pig
Sequence of Kappa-type opioid receptor (Cavia porcellus, UniProt P41144) (P41144 whole entry): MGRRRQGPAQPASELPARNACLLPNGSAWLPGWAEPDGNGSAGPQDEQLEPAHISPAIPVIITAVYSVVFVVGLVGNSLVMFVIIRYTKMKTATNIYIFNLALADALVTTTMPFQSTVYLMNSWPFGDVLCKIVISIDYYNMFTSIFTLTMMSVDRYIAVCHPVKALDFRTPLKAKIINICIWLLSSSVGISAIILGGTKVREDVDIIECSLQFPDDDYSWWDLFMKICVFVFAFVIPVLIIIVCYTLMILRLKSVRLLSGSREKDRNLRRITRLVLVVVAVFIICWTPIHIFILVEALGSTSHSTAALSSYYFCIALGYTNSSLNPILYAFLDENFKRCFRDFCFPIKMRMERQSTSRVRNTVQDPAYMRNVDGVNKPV

[5] = molecular target: Delta-type opioid receptor (Homo sapiens, UniProt P41143)
Sequence of Delta-type opioid receptor (P41143 whole entry): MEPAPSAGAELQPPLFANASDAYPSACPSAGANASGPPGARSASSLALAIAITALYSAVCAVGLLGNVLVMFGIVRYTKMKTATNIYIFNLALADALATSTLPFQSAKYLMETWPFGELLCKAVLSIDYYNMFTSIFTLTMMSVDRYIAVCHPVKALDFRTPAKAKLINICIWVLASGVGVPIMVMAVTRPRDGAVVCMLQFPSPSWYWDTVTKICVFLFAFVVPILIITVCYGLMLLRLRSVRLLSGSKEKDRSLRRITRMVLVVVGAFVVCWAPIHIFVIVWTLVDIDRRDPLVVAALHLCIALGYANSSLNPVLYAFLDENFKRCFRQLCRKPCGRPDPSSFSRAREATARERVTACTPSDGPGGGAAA
Description: Binding affinity determined against Opioid receptor delta 1 from human cloned receptor

Mu-type opioid receptor [6] = molecular target: Mu-type opioid receptor (Cavia porcellus, UniProt P97266); experiment: Binding affinity of compound was determined against Opioid receptor mu 1 from native receptor in guinea pig
Sequence of Mu-type opioid receptor (Cavia porcellus, UniProt P97266) (P97266 whole entry): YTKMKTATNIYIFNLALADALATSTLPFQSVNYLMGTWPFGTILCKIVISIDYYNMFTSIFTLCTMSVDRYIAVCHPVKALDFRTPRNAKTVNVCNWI

T1 sequence (P41145 whole entry): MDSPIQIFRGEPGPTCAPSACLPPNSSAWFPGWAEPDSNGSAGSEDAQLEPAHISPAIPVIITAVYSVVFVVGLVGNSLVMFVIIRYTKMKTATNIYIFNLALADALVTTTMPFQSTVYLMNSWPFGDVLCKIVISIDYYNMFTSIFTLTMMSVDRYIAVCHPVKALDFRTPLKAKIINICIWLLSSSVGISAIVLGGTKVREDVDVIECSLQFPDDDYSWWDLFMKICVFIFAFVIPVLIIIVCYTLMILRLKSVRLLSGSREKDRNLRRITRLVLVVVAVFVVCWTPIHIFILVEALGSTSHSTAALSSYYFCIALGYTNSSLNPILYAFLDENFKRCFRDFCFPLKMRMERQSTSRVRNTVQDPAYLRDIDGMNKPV

| SMILES | Ki [1] [nM] | Ki [2] [nM] | Ki (Mu-type opioid receptor [3]) [nM] | Ki [4] [nM] | Ki [5] [nM] | Ki (Mu-type opioid receptor [6]) [nM] |
| --- | --- | --- | --- | --- | --- | --- |
| O=C(NCCC1CN=C(c2ccccc2)c2ccccc2N1)c1ccccc1 (configuration not stated) | 0.251 | 0.25 | – | – | – | – |
| CN1c2ccc(Cl)cc2C(c2ccccc2)=NCC1CCNC(=O)c1cccs1 (configuration not stated) | – | 0.7 | 26.3 | – | – | – |
| CN1c2ccc(Cl)cc2C(c2ccccc2)=NCC1CCNC(=O)c1ccccc1F (configuration not stated) | 1.55 | 1.52 | – | – | – | – |
| COc1cccc2c1C(c1ccccc1)=NCC(CCNC(=O)c1cccs1)N2C (configuration not stated) | 3.8 | 3.77 | – | 116 | – | – |
| O=C(NCCC1CN=C(c2ccccc2)c2ccccc2N1)c1cccs1 (configuration not stated) | 0.447 | 0.45 | – | 1.74 | – | – |
| CN1c2ccccc2C(c2ccccc2)=NCC1CCNC(=O)c1ccc(F)cc1 (configuration not stated) | 0.302 | 0.3 | – | – | – | – |
| CN1c2ccc(Cl)cc2C(c2ccccc2)=NCC1CCNC(=O)c1cc2ccccc2[nH]1 (configuration not stated) | 13.5 | 13.6 | – | – | – | – |
| CN1c2ccccc2C(c2ccccc2F)=NCC1CCNC(=O)c1ccsc1 (configuration not stated) | – | 0.37 | 3 | 0.78 | 69 | 1.93 |
| CN1c2ccc(Cl)cc2C(c2ccccc2)=NCC1CCNC(=O)c1ccc(F)cc1 (configuration not stated) | 0.55 | 0.55 | – | – | – | – |
| CN1c2ccccc2C(c2ccccc2)=NCC1CCNC(=O)c1cccs1 (configuration not stated) | – | 0.58 | 9.4 | – | – | – |
| CN1c2ccccc2C(c2ccccc2)=NC[C@@H]1CCNC(=O)c1cccs1 | 0.427 | 0.43 | 9.2 | – | – | – |
| CN1c2ccc(Cl)cc2C(c2ccccc2)=NC[C@@H]1CCNC(=O)c1cccs1 | 0.692 | 0.69 | 27.4 | – | – | – |
| CN1c2ccccc2C(c2ccccc2F)=NC[C@@H]1CCNC(=O)c1ccsc1 | 0.17 | 0.17 | 1.5 | – | 27.8 | – |
| CN1c2ccccc2C(c2ccccc2)=NC[C@H]1CCNC(=O)c1cccs1 | – | 1.28 | 54.8 | – | – | – |
| CN1c2ccc(Cl)cc2C(c2ccccc2)=NC[C@H]1CCNC(=O)c1cccs1 | – | 0.79 | 33.2 | – | – | – |
| CN1c2ccccc2C(c2ccccc2F)=NC[C@H]1CCNC(=O)c1ccsc1 | – | 0.71 | 24.8 | – | 438 | – |
| O=C(NCCC1CN=C(c2ccccc2)c2ccccc2N1)c1ccccc1F (configuration not stated) | 0.537 | 0.53 | – | – | – | – |
| CN1c2ccccc2C(c2ccccc2)=NCC1CCNC(=O)c1ccc([N+](=O)[O-])cc1 (configuration not stated) | 0.479 | 0.47 | – | – | – | – |
| CN(CCC1CN=C(c2ccccc2)c2ccccc2N1C)C(=O)c1cccs1 (configuration not stated) | 4.37 | 4.34 | – | 25.7 | – | – |
| CN1c2ccc(Cl)cc2C(c2ccccc2)=NCC1CCNC(=O)c1ccc(Cl)cc1 (configuration not stated) | 1.32 | 1.31 | – | – | – | – |
| O=C(NCCC1CN=C(c2ccccc2)c2ccccc2N1)c1ccc(F)cc1 (configuration not stated) | 0.282 | 0.28 | – | – | – | – |
| CN1c2ccccc2C(c2ccccc2)=NCC1CCNC(=O)c1ccccc1F (configuration not stated) | 0.363 | 0.36 | – | – | – | – |
| Oc1ccc2c3c1O[C@H]1c4[nH]c5ccccc5c4C[C@@]4(O)[C@@H](C2)N(CC2CC2)CC[C@]314 [NALTRINDOLE] | – | – | – | 10.2 | – | 14.7 |
